How the values were obtained:
Format in all cases: in vivo
Design in all cases: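 grade 0 to 5 of growth suppression where 5 is 90% or more and 0 below 10%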
[1] = system: Scirpus juncoides Roxb. var. ohwianus. T. Koyama; assay: Herbicidal effects in paddy field soil treatment (Test Example 1); details: paddy field soil treatment; 1000 g of the active ingredient per hectare; wettable powder added dropwise on water surface; 21st day after treatment
Summary of the method: (§1)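 Application rate 1000 g a.i./ha, delivered as water-diluted wettable powder onto flooded (3 cm) paddy soil one day after sowing. Plants kept in a greenhouse and evaluated for herbicidal effect on day 21 post-treatment.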

[2] = system: Monochoria vaginalis (Burm. f.) Presl var. plantaginea (Roxb.) Solms-Laub.; assay: as above; details: paddy field soil treatment; 1000 g of the active ingredient per hectare; wettable powder added dropwise on water surface; 21st day after treatment
Summary of the method: as §1

[3] = system: Echinochloa oryzicola Vasing; assay: as above; details: paddy field soil treatment; 1000 g of the active ingredient per hectare; wettable powder added dropwise on water surface; 21st day after treatment
Summary of the method: as §1

Amaranthus viridis L. [4] = assay: Herbicidal effects in upland field foliar treatment (Test Example 3); details: criteria of Table 138; for herbicidal effects on Amaranthus viridis L.: 1000 g of the active ingredient per hectare, 14th day after the treatment, wettable powder; for herbicidal effect (index) on Amaranthus viridis L.: 1000 g active ingredient per hectare, 14th day after treatment
Summary of the method: (§2)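 Foliar spray of diluted wettable powder, 1000 g a.i./ha in 1000 L/ha, onto two-week-old greenhouse-grown seedlings in upland field soil. Plants kept in the greenhouse, with effect rated on a criteria scale at day 14.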

[5] = system: Echinochloa crus-galli (L.) P. Beauv. var. crus-galli; assay: as above; details: criteria of Table 138; for herbicidal effects on Echinochloa crus-galli (L.) P. Beauv. var. crus-galli: 1000 g of the active ingredient per hectare, 14th day after the treatment, wettable powder; for herbicidal effect (index) on Echinochloa crus-galli (L.) P. Beauv. var. crus-galli: 1000 g active ingredient per hectare, 14th day after treatment
Summary of the method: as §2

[6] = system: Abutilon theophrasti medicus; assay: as above; details: criteria of Table 138; for herbicidal effects on Abutilon theophrasti medicus: 1000 g of the active ingredient per hectare, 14th day after the treatment, wettable powder; for herbicidal effect (index) on Abutilon theophrasti medicus: 1000 g active ingredient per hectare, 14th day after treatment
Summary of the method: as §2

Amaranthus viridis L. [7] = assay: Herbicidal effects in upland field soil treatment (Test Example 2); details: 1000 g active ingredient per hectare, 21st day after treatment, criteria of Table 138
Summary of the method: (§3)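 Herbicidal effect graded 21 days after treatment, plants kept in greenhouse. Treatment was a soil-surface spray of wettable powder in water, 1000 g a.i./ha in 1000 L/ha, applied after sowing and covering seeds.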

[8] = system: Abutilon theophrasti medicus; assay: as above; details: 1000 g active ingredient per hectare, 21st day after treatment, criteria of Table 138
Summary of the method: as §3

SMILES	Herbicidal effects index, Scirpus juncoides Roxb. var. ohwianus. T. Koyama [1]	Herbicidal effects index, Monochoria vaginalis (Burm. f.) Presl var. plantaginea (Roxb.) Solms-Laub. [2]	Herbicidal effects index, Echinochloa oryzicola Vasing [3]	herbicidal effects on Amaranthus viridis L. (Amaranthus viridis L. [4])	herbicidal effects on Echinochloa crus-galli (L.) P. Beauv. var. crus-galli [5]	herbicidal effects on Abutilon theophrasti medicus [6]	herbicidal effect (index) on Amaranthus viridis L. (Amaranthus viridis L. [7])	herbicidal effect (index) on Abutilon theophrasti medicus [8]	herbicidal effect (index) on Amaranthus viridis L. (Amaranthus viridis L. [4])	herbicidal effect (index) on Echinochloa crus-galli (L.) P. Beauv. var. crus-galli [5]	herbicidal effect (index) on Abutilon theophrasti medicus [6]
COc1ccc(-n2c(=O)c(C(=O)C3=C(O)CC(C)(C)CC3=O)nc3ccccc32)cc1 [II-64]	4	5	5	5	5	5	5	4			
COc1cc(-n2c(=O)c(C(=O)C3=C(O)CCCC3=O)nc3cc(F)ccc32)cc(OC)c1OC [II-238]	5	5	5	5	5	5	5	5			
Cc1cc(-n2c(=O)c(C(=O)C3=C(O)CCCC3=O)nc3ccccc32)nn1C [I-266]	5	5	5				5	5	5	5	5
Cc1nc(-n2c(=O)c(C(=O)C3=C(O)CCCC3=O)nc3ccccc32)no1 [I-163]	5	5	4				5	5	5	4	5
CCS(=O)(=O)Cn1c(=O)c(C(=O)C2=C(O)CCCC2=O)nc2ccccc21 [Compound I-82]	5	5	5				5	5	5	4	5
CC1(C)CCC(=O)C(C(=O)c2nc3cccnc3n(-c3ccccc3)c2=O)=C1O [IV-2]	5	5	5	5	5	5	5	5			
C#CCn1c(=O)c(C(=O)C2=C(O)CCCC2=O)nc2cccnc21 [III-35]	5	5	4	5	4	5	5	5			
CC(C)n1c(=O)c(C(=O)C2=C(O)CCCC2=O)nc2cccnc21 [III-13]	5	5	5	5	4	5	5	5			
O=C1CCCC(O)=C1C(=O)c1nc2ccccc2n(-c2ccc(C3CC3)cc2)c1=O [II-33]	5	5	5	5	5	5	5	4			
O=C1CCCC(O)=C1C(=O)c1nc2ccccc2n(Cc2ccccc2)c1=O [Compound I-107]	5	5	4				5	5	5	4	5
COc1ccc2nc(C(=O)C3=C(O)CCCC3=O)c(=O)n(-c3ccccc3)c2c1 [II-252]	5	5	5	5	5	5	5	5			
Cc1cc(-n2c(=O)c(C(=O)C3=C(O)C4CCC(C4)C3=O)nc3ccccc32)no1 (stereo not drawn) [I-148]	5	5	5				5	5	5	5	5
O=C1CCCC(O)=C1C(=O)c1nc2cccnc2n(-c2cccc(F)c2)c1=O [IV-7]	5	5	5	5	5	5	5	5			
O=C(C1=C(O)C2CCC(C2)C1=O)c1nc2ccccc2n(-c2ccc(Cl)cc2)c1=O (stereo not drawn) [II-14]	5	5	5	5	5	4	5	5			
O=C1CCCC(O)=C1C(=O)c1nc2ccccc2n(-c2ccon2)c1=O [I-144]	5	5	5				5	5	5	5	5
